Measurements: ChEMBL document CHEMBL4396947, “Synthesis and characterization of novel isoform-selective IP6K1 inhibitors” (Bioorg Med Chem Lett, 2019)

How the values were obtained:
[1] = molecular target: Tyrosine-protein kinase receptor TYRO3 (Homo sapiens) (UniProt Q06418); experiment: Inhibition of recombinant human RSE (451 to end residues) assessed as residual activity at 10 uM using KVEKIGEGTYGVV as substrate incubated for 40 mins in presence of [gamma-33P]ATP at Km concentration by scintillation counting method relative to control
Tyrosine-protein kinase receptor TYRO3 (Homo sapiens), sequence (Q06418 whole entry): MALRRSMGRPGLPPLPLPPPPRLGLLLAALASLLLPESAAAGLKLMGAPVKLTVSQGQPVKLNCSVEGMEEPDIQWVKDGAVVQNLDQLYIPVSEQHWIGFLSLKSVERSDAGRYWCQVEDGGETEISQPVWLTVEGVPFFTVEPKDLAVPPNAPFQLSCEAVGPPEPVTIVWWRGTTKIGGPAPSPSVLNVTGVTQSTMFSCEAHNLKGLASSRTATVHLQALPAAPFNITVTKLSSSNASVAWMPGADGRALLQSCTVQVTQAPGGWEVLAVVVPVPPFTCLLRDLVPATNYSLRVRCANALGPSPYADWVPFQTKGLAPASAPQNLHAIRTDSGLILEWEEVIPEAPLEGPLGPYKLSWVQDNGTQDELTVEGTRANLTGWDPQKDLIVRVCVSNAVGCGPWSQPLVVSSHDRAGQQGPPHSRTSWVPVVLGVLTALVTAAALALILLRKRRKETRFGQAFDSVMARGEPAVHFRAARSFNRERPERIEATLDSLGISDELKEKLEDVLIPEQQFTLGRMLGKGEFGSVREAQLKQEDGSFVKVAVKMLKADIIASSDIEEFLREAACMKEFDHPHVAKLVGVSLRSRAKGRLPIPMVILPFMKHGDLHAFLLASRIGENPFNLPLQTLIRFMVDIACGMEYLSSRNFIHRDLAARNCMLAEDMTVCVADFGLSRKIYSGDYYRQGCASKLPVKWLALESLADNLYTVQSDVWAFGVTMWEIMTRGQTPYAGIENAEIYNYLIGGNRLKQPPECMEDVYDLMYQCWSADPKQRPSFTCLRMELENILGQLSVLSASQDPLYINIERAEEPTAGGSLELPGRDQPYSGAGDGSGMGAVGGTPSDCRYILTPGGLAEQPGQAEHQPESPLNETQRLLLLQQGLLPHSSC

[2] = molecular target: Calcium/calmodulin-dependent protein kinase type 1 (Homo sapiens) (UniProt Q14012); experiment: Inhibition of human full length recombinant CAMKI assessed as residual activity at 10 uM using KKLRRTLSFAEPG as substrate incubated for 40 mins in presence of [gamma-33P]ATP at Km concentration by radiometric assay relative to control
Calcium/calmodulin-dependent protein kinase type 1 (Homo sapiens), sequence (Q14012 whole entry, looked up): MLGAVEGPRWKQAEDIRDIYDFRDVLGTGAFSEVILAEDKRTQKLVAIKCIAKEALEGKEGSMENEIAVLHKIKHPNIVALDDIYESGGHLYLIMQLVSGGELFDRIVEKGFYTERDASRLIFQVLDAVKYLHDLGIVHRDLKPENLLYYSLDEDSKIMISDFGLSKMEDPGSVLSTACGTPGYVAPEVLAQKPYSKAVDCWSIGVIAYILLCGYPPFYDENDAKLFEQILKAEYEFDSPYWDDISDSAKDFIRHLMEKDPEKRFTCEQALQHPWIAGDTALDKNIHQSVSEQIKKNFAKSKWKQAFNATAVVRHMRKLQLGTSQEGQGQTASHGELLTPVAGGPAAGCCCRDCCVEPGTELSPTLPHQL

[3] = Half life in rat microsomes at 1 uM in presence of NADPH; format: ADME, Microsome
[4] = molecular target: cGMP-dependent protein kinase 1 (Homo sapiens) (UniProt Q13976); experiment: Inhibition of recombinant full length human PKG1alpha assessed as residual activity at 10 uM using RRRLSFAEPG as substrate incubated for 40 mins in presence of [gamma-33P]ATP at Km concentration by radiometric assay relative to control
cGMP-dependent protein kinase 1 (Homo sapiens), sequence (Q13976 whole entry): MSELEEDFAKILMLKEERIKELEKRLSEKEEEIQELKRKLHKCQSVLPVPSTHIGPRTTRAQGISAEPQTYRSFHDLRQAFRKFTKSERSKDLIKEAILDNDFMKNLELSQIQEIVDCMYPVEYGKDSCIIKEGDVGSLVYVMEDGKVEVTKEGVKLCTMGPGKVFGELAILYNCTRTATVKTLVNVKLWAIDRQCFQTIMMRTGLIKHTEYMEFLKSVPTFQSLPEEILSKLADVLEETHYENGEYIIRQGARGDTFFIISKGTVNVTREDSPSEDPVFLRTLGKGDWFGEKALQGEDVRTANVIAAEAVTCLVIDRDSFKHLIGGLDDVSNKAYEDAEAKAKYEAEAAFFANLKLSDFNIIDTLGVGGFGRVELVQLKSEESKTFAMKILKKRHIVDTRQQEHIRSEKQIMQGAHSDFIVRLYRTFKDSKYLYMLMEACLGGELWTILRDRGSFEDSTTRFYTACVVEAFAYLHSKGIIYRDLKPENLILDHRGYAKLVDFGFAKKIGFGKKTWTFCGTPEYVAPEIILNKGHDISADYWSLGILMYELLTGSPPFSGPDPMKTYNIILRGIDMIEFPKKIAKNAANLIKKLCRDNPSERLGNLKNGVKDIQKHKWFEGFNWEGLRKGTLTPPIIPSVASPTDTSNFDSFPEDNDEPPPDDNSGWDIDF

[5] = molecular target: Vascular endothelial growth factor receptor 2 (Homo sapiens) (UniProt P35968); experiment: Inhibition of human recombinant KDR (790 to end residues) assessed as residual activity at 10 uM using myelin basic protein as substrate incubated for 40 mins in presence of [gamma-33P]ATP at Km concentration by radiometric assay relative to control
Vascular endothelial growth factor receptor 2 (Homo sapiens), sequence (P35968 whole entry): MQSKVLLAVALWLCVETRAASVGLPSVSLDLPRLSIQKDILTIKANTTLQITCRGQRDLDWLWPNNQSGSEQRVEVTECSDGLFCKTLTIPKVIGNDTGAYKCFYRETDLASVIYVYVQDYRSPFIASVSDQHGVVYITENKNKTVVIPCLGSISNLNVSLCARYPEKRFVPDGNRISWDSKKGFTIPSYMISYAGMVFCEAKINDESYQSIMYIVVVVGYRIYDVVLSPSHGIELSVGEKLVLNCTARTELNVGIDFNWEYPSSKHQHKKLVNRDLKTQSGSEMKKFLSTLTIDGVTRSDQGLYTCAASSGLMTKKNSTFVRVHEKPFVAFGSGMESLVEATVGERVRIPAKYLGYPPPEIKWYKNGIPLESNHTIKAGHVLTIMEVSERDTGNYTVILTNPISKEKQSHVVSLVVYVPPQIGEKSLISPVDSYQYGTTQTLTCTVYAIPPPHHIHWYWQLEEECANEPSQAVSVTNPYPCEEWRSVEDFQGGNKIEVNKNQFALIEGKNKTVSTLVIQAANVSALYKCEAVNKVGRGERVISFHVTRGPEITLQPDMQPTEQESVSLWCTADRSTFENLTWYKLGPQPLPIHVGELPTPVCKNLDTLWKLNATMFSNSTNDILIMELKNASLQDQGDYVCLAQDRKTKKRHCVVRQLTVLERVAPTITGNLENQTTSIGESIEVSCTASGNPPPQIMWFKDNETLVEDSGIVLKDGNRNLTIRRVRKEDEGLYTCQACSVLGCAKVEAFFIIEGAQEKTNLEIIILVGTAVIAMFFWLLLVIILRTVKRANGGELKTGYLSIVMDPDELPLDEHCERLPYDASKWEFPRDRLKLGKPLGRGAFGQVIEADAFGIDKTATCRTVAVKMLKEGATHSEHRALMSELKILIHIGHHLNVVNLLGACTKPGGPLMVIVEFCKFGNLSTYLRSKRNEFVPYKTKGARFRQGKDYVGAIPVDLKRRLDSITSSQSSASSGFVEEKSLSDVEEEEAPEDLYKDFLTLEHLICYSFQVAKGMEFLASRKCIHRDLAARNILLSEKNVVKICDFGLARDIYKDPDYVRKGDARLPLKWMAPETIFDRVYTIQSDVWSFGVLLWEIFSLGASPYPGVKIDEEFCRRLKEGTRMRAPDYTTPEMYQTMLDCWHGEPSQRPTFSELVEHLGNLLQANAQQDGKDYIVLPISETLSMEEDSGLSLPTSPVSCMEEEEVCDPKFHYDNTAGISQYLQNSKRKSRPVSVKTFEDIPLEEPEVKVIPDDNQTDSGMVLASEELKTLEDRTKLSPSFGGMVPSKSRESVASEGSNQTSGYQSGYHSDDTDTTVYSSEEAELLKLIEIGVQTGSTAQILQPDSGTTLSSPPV

COc1ccc2c(CCNc3nc(NCc4ccc(=O)[nH]c4)c4nc[nH]c4n3)c[nH]c2c1
Activity [1]: 91% | Activity [2]: 77% | t1/2 [3]: 38 min | Activity [4]: 97% | Activity [5]: 60%
